# Several values for one entry are separate records, joined by “and”; a condition that tells them apart may be missing. Equal entries are not always repeated. Marks after values point to notes of the source that are not given here.
# What was measured:
# [1] = tested on: co-culture model with Caco-2 and HT29-MTX; test: 3D intestinal permeability assay (co-culture, HPLC-MS of basolateral samples); format: in vitro ADME; settings: for Permeability (%): 3D intestinal model, compound of kiwiberry leaf extract; for permeation in the 3D intestinal model: time not stated; for permeation (detection after the 3D intestinal permeation assay): aglycones, result in words
# Description: The intestinal permeability was carried out in a co-culture model with Caco-2 and HT29-MTX [40]. The extract was added to the apical side of the model. A sample from the basolateral side was collected at different timepoints (0, 15, 30, 45, 60, 90, 120, 150, 180, and 240 min). Samples were analyzed by HPLC-MS assay (Section 3.5). The TEER of the model was evaluated before, during and at the end of the permeability assay using an EVOM Epithelial Volthometer Instrument equipped with a chopstick electrode (World Precision Instruments, Sarasota, FL, USA).
# The phenolic compounds that permeated the intestinal 3D model were identified and quantified according to Silva et al.. The samples were diluted 10 times with methanol-water (50:50) and centrifuged at 13,300× […] for 15 min. The supernatant was then transferred to a vial for the LC-MS analysis. The standard calibration curves were: • Chlorogenic acid titration curve: y = 198.01x + 20.138 (R^2 = 1) • Rutin titration curve: y = 58.564x + 41.752 (R^2 = 0.9998)
# Regarding the multiple reaction monitoring (MRM), the values were: • Chlorogenic acid: 353.5 > 191.2 • Rutin: 609.4 > 301.3 • Coumaroyl quinic acid: 337.3 > 191.3
# CAT = test: In vivo antioxidant parameter: CAT activity in kidney, liver, serum; set-up: species or system Wistar rats; settings: 50 mg/kg bw oral once daily 7 days
# Description: (§1) The homogenate supernatants were analyzed by biochemical assays.
# (§2) The antioxidant enzyme activities, namely SOD, CAT, and GSH-Px, were evaluated in the homogenate supernatants from organs through commercial enzymatic kits from Sigma-Aldrich (Steinheim, Germany). The lipid peroxidation was determined through the determination of MDA levels using a commercial kit (Merck, Darmstadt, Germany).
# SOD = test: In vivo antioxidant parameter: SOD activity in kidney, liver, serum; set-up: species or system Wistar rats; settings: 50 mg/kg bw oral once daily 7 days
# Description: as §1, §2
# GSH-Px = test: In vivo antioxidant parameter: GSH-Px activity in kidney, liver, serum; set-up: species or system Wistar rats; settings: 50 mg/kg bw oral once daily 7 days
# Description: as §1, §2
# kidney and liver tissues = test: Histopathological analysis of kidney and liver (hematoxylin-eosin); settings: oral gavage once daily 7 days; extract 50 and 75 mg/kg bw, vitamin C 50 mg/kg bw
# Description: Young male Wistar rats of 5–6 weeks of age (140–207 g) were acquired from the Jackson Laboratory (Bar Harbor, ME, USA) and acclimatized in polypropylene cages to the environmental conditions (12 h dark/light cycle, controlled temperature (21 ± 2 °C), relative humidity (55 ± 10%) and fed ad libitum with standard pellet diet and water for 1 week before the experiment).
# All groups were treated once daily for 7 days by oral gavage after a fasting period of 4 h. The body weight of each animal was recorded twice a week during the experimental period. Blood samples were collected from tail vein and a glucometer (Accu-Chek, Roche® Diabetes Care, Inc., Mississauga, QC, Canada) was used to measure the glucose levels.
# After 7 days, the animals were sacrificed by pentobarbital overdose (50 mg/kg bw). The organs (liver and kidneys) were removed, and the blood was collected by cardiac puncture. Serum was separated by centrifugation (20,000× g, 15 min, 4 °C) and stored at −80 °C for biochemical analyses [42]. The organs were dissected from each animal and subsequently mixed with 50 mM potassium phosphate, pH 7.0, and centrifuged (20,000× g, 15 min, 4 °C), according to the kit manufacturer’s instructions. The homogenate supernatants were analyzed by biochemical assays.
# The tissue samples (liver and kidney) were preserved in 10% formalin. […]
# [2] = Serum biochemical analysis (TC, HDL-C, LDL-C, TG) after 7 days oral treatment; format: in vivo, Wistar rats; settings: 50 mg/kg bw oral once daily 7 days
# Description: as §1
# Serum was used to analyze the TC, HDL-C, and LDL-C using commercial kits from Sigma-Aldrich (Steinheim, Germany). TG levels were estimated in the blood serum through a commercial kit from Abcam (Cambridge, MA, USA).
# MDA = test: Lipid peroxidation: MDA levels in kidney, liver, serum; format: in vivo, Wistar rats; settings: 50 mg/kg bw oral once daily 7 days
# Description: as §1, §2
SMILES,Permeability (%) ([1]; 15 min),Permeability (%) ([1]; 30 min),Permeability (%) ([1]; 45 min),Permeability (%) ([1]; 60 min),Permeability (%) ([1]; 90 min),Permeability (%) ([1]; 120 min),Permeability (%) ([1]; 180 min),Permeability (%) ([1]; 240 min),permeation in the 3D intestinal model [1],permeation (detection after the 3D intestinal permeation assay) [1],further results
O=C(/C=C/c1ccc(O)cc1)O[C@@H]1C[C@](O)(C(=O)O)C[C@@H](O)[C@H]1O [Coumaroyl quinic acid],1.04 ± 0.05%,18.81 ± 0.94%,7.99 ± 0.39%,13.50 ± 0.68%,19.74 ± 0.99%,14.60 ± 0.73%,24.32 ± 1.22%,34.23%,higher than 25%,,"Permeability (%) ([1]; 240 min, listed as Coumaroyl Quinic Acid): 34.23 ± 1.71%"
C[C@@H]1O[C@@H](OC[C@H]2O[C@@H](Oc3c(-c4ccc(O)c(O)c4)oc4cc(O)cc(O)c4c3=O)[C@H](O)[C@@H](O)[C@@H]2O)[C@H](O)[C@H](O)[C@H]1O [Rutin],6.67 ± 0.33%,10.89 ± 0.54%,17.01 ± 0.85%,14.61 ± 0.73%,14.56 ± 0.73%,18.50 ± 0.93%,18.30 ± 0.92%,25.40 ± 1.27%,higher than 25%,,"Permeability (%) ([1]; 15 min, listed as rutin): 6.67%; Permeability (%) ([1]; 240 min, listed as rutin): 25.40%"
O=c1c(O)c(-c2ccc(O)cc2)oc2cc(O)cc(O)c12 [kaempferol],,,,,,,,,,absence of permeation,
O=C1O[C@H]([C@@H](O)CO)C(O)=C1O [vitamin C],,,,,,,,,,,"CAT, Kidneys (CAT): 427,496 ± 78,015 ^b nmol/min/g protein; CAT, Liver (CAT): 3,762,450 ± 434,242 ^c nmol/min/g protein; CAT, Serum (CAT): 34,911 ± 7975 ^b nmol/min/mL protein; SOD, Kidneys (SOD): 123.13 ± 19.27 ^b,c units/g protein; SOD, Liver (SOD): 83.71 ± 6.06 ^b units/g protein; SOD, Serum (SOD): 79.20 ± 5.76 ^b units/mL protein; GSH-Px, Kidneys (GSH-Px): 136.66 ± 19.62 ^b units/g protein; GSH-Px, Liver (GSH-Px): 71.34 ± 10.94 ^b,c units/g protein; GSH-Px, Serum (GSH-Px): 20.16 ± 5.29 ^b units/mL protein; histopathological examination of kidneys (kidney and liver tissues): did not lead to morphological alterations; HDL-C [2]: 155.09 ± 37.71 mg/dL; LDL-C [2]: 76.24 ± 16.52 mg/dL; TG [2]: 229.76 ± 33.54 ^a mg/dL; TC ([2]; 50 mg/kg): 79.81 mg/dL and 79.81 ± 15.11 mg/dL; MDA, Kidneys (MDA): 196,748 ± 31,125 ^a nmol/g protein; MDA, Liver (MDA): 145,827 ± 10,063 ^b nmol/g protein; MDA, Serum (MDA): 746.79 ± 123.55 ^b nmol/mL protein"

# Further lines, with some results ahead:
Permeability (%) ([1]; 15 min),Permeability (%) ([1]; 30 min),Permeability (%) ([1]; 45 min),Permeability (%) ([1]; 60 min),Permeability (%) ([1]; 90 min),Permeability (%) ([1]; 120 min),Permeability (%) ([1]; 180 min),Permeability (%) ([1]; 240 min),permeation in the 3D intestinal model [1],permeation (detection after the 3D intestinal permeation assay) [1],SMILES,further results
<LOD,1.79 ± 0.09%,<LOD,<LOD,<LOD,<LOD,<LOD,2.49%,,,O=C(/C=C/c1ccc(O)c(O)c1)O[C@@H]1C[C@](O)(C(=O)O)C[C@@H](O)[C@H]1O [Chlorogenic acid],"Permeability (%) ([1]; 240 min, listed as Chlorogenic Acid): 2.49 ± 0.13%"
,,,,,,,,,absence of permeation,O=c1c(O)c(-c2ccc(O)c(O)c2)oc2cc(O)cc(O)c12 [quercetin],

# — article PMC9692619, “Insights into the 3D In Vitro Permeability and In Vivo Antioxidant Protective Effects of Kiwiberry Leaf Extract: A Step Forward to Human Nutraceutical Use” (International Journal of Molecular Sciences, 2022)
